For one test, the system named is PKB (Akt). Particulars: read-out: Cellular PKB Mean IC50; MDA-MB-468 cells, phosphorylation of Serine-9 of GSK-3β, 2 hours incubation.
For a further test, the target named is AKT1 (PKBα) (Homo sapiens (Human), UniProt P31749). The following applies: read-out: In vitro PKBα Mean IC50, AKT1/PKBα active enzyme, Caliper LabChip LC3000.

Like-named read-outs stand apart in the source and are kept apart here. Some results are limits rather than exact numbers.

Chain of AKT1 (PKBα) (P31749 whole entry): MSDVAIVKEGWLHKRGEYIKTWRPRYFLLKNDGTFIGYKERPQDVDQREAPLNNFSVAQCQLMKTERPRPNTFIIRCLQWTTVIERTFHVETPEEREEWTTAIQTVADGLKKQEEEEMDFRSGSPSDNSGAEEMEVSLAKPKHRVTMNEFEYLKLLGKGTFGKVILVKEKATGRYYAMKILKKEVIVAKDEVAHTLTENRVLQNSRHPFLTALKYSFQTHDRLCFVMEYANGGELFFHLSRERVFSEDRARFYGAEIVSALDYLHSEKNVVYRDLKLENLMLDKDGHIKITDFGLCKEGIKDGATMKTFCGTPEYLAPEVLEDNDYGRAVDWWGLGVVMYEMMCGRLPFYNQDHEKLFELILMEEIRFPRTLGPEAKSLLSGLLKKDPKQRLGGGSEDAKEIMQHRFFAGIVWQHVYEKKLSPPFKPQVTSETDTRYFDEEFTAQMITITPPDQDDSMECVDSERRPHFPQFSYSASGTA

Consider `NCC(NC(=O)C1(N)CCN(c2ncnc3[nH]ccc23)CC1)c1ccc(Cl)cc1` (stereo not shown) [Example 5, 4-amino-N-(2-amino-1-(4-chlorophenyl)ethyl)-1-(7H-pyrrolo[2,3-d]pyrimidin-4-yl)piperidine-4-carboxamide], for which the results for the half-inhibitory concentration (IC50) in the test with PKB (Akt) and on AKT1 (PKBα) were 270 nM and 9.7 nM, respectively.
The like results for `C[C@H](NC(=O)C1(CN)CCN(c2ncnc3[nH]ccc23)CC1)c1ccc(Cl)cc1` [Example 6, (S)-4-(aminomethyl)-N-(1-(4-chlorophenyl)ethyl)-1-(7H-pyrrolo[2,3-d]pyrimidin-4-yl)piperidine-4-carboxamide] were, in that order, 20 nM and 1.2 nM.
For `CC(=O)NCCC(NC(=O)C1(N)CCN(c2ncnc3[nH]ccc23)CC1)c1ccc(Cl)cc1` (stereo not shown) [Example 10, N-(3-acetamido-1-(4-chlorophenyl)propyl)-4-amino-1-(7H-pyrrolo[2,3-d]pyrimidin-4-yl)piperidine-4-carboxamide], in that order: 250 nM and 4.2 nM.
Regarding `NCC1(C(=O)NC(CCO)c2ccc(Cl)cc2)CCN(c2ncnc3[nH]ccc23)CC1` (stereo not shown) [Example 12, 4-(aminomethyl)-N-(1-(4-chlorophenyl)-3-hydroxypropyl)-1-(7H-pyrrolo[2,3-d]pyrimidin-4-yl)piperidine-4-carboxamide], the IC50 with PKB (Akt) was 100 nM.
For `NCCC(NC(=O)C1(N)CCN(c2ncnc3[nH]ccc23)CC1)c1ccc(Cl)cc1` (stereo not shown) [Example 14, 4-amino-N-(3-amino-1-(4-chlorophenyl)propyl)-1-(7H-pyrrolo[2,3-d]pyrimidin-4-yl)piperidine-4-carboxamide], the IC50 in the test with PKB (Akt) is 940 nM; on AKT1 (PKBα), 3 nM.
Consider `NC1(C(=O)N[C@H](CCO)c2ccc(Cl)cc2)CCN(c2ncnc3[nH]ccc23)CC1` [Example 15, (R)-4-amino-N-(1-(4-chlorophenyl)-3-hydroxypropyl)-1-(7H-pyrrolo[2,3-d]pyrimidin-4-yl)piperidine-4-carboxamide], for which the IC50 in the test with PKB (Akt) is > 3100 nM.
Consider `C[C@@H](NC(=O)C1(CN)CCN(c2ncnc3[nH]ccc23)CC1)c1ccc(Cl)cc1` [Example 17, (R)-4-(aminomethyl)-N-(1-(4-chlorophenyl)ethyl)-1-(7H-pyrrolo[2,3-d]pyrimidin-4-yl)piperidine-4-carboxamide], for which the 50% inhibitory concentration (IC50) stood at 240 nM in the test on PKB (Akt) and 12 nM at AKT1 (PKBα).
For `N#Cc1ccc([C@H](CCO)NC(=O)C2(N)CCN(c3ncnc4[nH]ccc34)CC2)cc1` [Example 18, (S)-4-amino-N-(1-(4-cyanophenyl)-3-hydroxypropyl)-1-(7H-pyrrolo[2,3-d]pyrimidin-4-yl)piperidine-4-carboxamide], in that order: 1400 nM and 16 nM.
As to `NC1(C(=O)N[C@@H](CCO)c2ccc(Cl)cc2)CCN(c2ncnc3[nH]cc(Br)c23)CC1` [Example 19, (S)-4-amino-1-(5-bromo-7H-pyrrolo[2,3-d]pyrimidin-4-yl)-N-(1-(4-chlorophenyl)-3-hydroxypropyl)piperidine-4-carboxamide], the IC50 in the test with PKB (Akt) came to 260 nM.
In the case of `NC1(C(=O)N[C@@H](CCO)c2ccc(Cl)cc2)CCN(c2ncnc3[nH]ncc23)CC1` [Example 20, (S)-4-amino-N-(1-(4-chlorophenyl)-3-hydroxypropyl)-1-(1H-pyrazolo[3,4-d]pyrimidin-4-yl)piperidine-4-carboxamide], the IC50 with PKB (Akt) turned out to be 980 nM; on AKT1 (PKBα) (tested once only), 20 nM.
Regarding `NC1(C(=O)N[C@@H](CCO)c2ccc(Cl)cc2)CCN(c2ncnc3[nH]cc(C4CC4)c23)CC1` [Example 27, (S)-4-amino-N-(1-(4-chlorophenyl)-3-hydroxypropyl)-1-(5-cyclopropyl-7H-pyrrolo[2,3-d]pyrimidin-4-yl)piperidine-4-carboxamide], the IC50 in the test on PKB (Akt) was 370 nM.
Same read-out and setting: the figure for `C[C@H](NC(=O)C1(N)CCN(c2ncnc3[nH]ccc23)CC1)c1ccc(C#N)cc1` [Example 39, 4-amino-N-[(1S)-1-(4-cyanophenyl)ethyl]-1-(7H-pyrrolo[2,3-d]pyrimidin-4-yl)piperidine-4-carboxamide] is 1900 nM.

A word on the IC50: it is the concentration needed to halve the response being measured.

The values are drawn from patent US9492453B2 (priority 2007, dated 2016).
